Reference: patent publication US20250235437A1, “PROTEOLYSIS TARGETING CHIMERA (PROTAC) MOLECULE FOR DEGRADATION OF ENL AND CANCER THERAPY” (Baylor College of Medicine, priority 2022, published 2025)

Columns and labels:
ENL = biological target: T1, ENL (Homo sapiens, UniProt Q03111); test: Nuclear and cytoplasmic ENL levels in MV4;11 cells, 4 days (Western blot); assay type: cell-based
T1 construct: tested whether the compounds degrade ENL and AF9 in MV4;11 leukemia cells; endogenous in cells; host or cells: MV4;11; Molm-13
T1 sequence (Q03111 1-559): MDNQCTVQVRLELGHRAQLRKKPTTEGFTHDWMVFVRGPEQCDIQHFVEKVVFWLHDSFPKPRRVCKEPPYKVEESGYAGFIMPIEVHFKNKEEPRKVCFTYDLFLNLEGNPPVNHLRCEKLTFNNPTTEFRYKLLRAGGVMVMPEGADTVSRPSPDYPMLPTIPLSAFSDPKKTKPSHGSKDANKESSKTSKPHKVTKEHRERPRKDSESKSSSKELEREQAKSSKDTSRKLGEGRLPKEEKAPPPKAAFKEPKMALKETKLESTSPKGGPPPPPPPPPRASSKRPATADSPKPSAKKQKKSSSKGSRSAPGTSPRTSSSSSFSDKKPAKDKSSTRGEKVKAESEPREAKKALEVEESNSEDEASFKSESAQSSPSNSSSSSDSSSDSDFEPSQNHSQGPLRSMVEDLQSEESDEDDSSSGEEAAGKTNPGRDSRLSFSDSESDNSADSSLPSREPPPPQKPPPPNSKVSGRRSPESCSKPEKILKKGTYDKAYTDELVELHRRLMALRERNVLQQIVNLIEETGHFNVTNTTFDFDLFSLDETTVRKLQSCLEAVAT
Source text: Upon treatment of MV4;11 cells with these compounds for 4 days, cytoplasmic and nuclear proteins were separated and subjected to SDS-PAGE/Western blot.

[1] = tested on: AF9, AFF4, cyclin-T1, DOT1L; test: Levels of other SEC-related proteins in MV4;11 cells, 4 days (Western blot); assay type: cell-based; conditions: nucleus
Source text: Applicant further investigated how compound 1 affects ENL, AF9 and other proteins of SEC in the cytoplasmic and nuclear compartments, the latter of which are more relevant to the functions of these transcription cofactors. […] Upon treatment of MV4;11 cells with these compounds for 4 days, cytoplasmic and nuclear proteins were separated and subjected to SDS-PAGE/Western blot.

HoxA9, Meis1 and Myc = test: Expression of HoxA9, Meis1 and Myc in Molm-13 cells; assay type: cell-based; conditions: 4 days
Protocol: Previous studies show ENL is required for expression of MLL1-target genes in MLL1-r leukemia. How compound 1-mediated ENL degradation changes expression of HoxA9, Meis1 and Myc, three characteristic genes in MLL1-r leukemia, was examined. Molm-13 cells were treated with compound 1 for 4 days, after which the RNAs were extracted and analyzed.

Molm-13 cells [2] = test: Gene profiling and GSEA in Molm-13 cells; assay type: cell-based; conditions: 500 nM
Protocol: Gene profiling was performed to find how compound 1 affects global gene transcriptome. mRNAs from the control and compound 1 (500 nM) treated Molm-13 cells were extracted, purified and sequenced. Bioinformatic analysis was performed to find differentially expressed genes between the treated and control cells, which were used for gene set enrichment analysis (GSEA). […] These clearly indicate that treatment with compound 1 recapitulated ENL knockout with similar patterns of gene expression changes.

RPMI-8226 cells = test: Anti-proliferative activity, RPMI-8226 cells; assay type: cell-based
[3] = tested on: Kasumi-1, RPMI-8226 and U266 cells; conditions: read-out: EC50, proliferation; AML Kasumi-1 and myeloma RPMI-8226 and U266 cells, range over cell lines
Source text: (§1) FIGS. 6A-6G summarize the antitumor activities of ENL-targeting compounds.

Panc1 = conditions: read-out: EC50, proliferation; Panc1 (pancreatic) cells
Source text: as §1

Molm-13 cells [4] = test: Apoptosis of Molm-13 cells; assay type: cell-based
Protocol: Treatment of Molm-13 cells with compound 1 for 7 days at 1 and 3 μM caused significant apoptosis of 22.7% and 67.6%, respectively (FIG. 6C).

Molm-13 cells [5] = test: Differentiation of Molm-13 cells (CD14, CD11b); assay type: cell-based; conditions: 3 μM for 5 days
mutant ENL (mENL) = biological target: T2, mutant ENL (mENL) (Homo sapiens, UniProt Q03111, INS117NHL); test: Degradation of mutant and WT ENL in transfected HEK293T cells; assay type: cell-based
T2 construct: expressed in transfected cells; host or cells: HEK293T
Protocol: Ability of compound 1 to degrade mutant ENL, which has been implicated to cause Wilms tumor, was evaluated. […] A pcDNA3.1(+)-N-DYK plasmid containing a mutant ENL (mENL) with a short insertion of -NHL- between L117 and R118 was transfected into 5×10^5 HEK293T cells. Upon incubation for 24 h, expression of the FLAG-tagged mENL can be dose-dependently detected with as low as […] of the plasmid (FIG. 7A). Using a FLAG antibody appeared to be less quantitative because of a higher background staining for the control samples (FIGS. 7A-7C, left panels).
With 0.1 μg of the plasmid, compound 1 can efficiently degrade both WT and mutant ENL proteins with Dmax of ˜95% at ˜500 nM upon 24 h incubation (FIG. 7B). […] It was ineffective with […] of the plasmid (not shown), presumably because the rate of mENL synthesis in cells was higher than that of 1-mediated degradation.

Myc = Myc expression in RPMI-8226 cells; assay type: cell-based; conditions: 4 days
[6] = biological target: T3, ENL YEATS-H3K27ac interaction (Homo sapiens, UniProt Q03111); test: ALPHA assay, inhibition of ENL YEATS-H3K27ac interaction; conditions: read-out: IC50, inhibition of ENL YEATS-H3K27ac interaction
T3 sequence (Q03111 1-138 limits assumed): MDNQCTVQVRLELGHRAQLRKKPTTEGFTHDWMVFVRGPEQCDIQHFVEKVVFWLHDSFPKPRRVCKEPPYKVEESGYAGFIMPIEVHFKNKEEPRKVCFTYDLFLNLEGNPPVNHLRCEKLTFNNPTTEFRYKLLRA

T2 sequence (Q03111 with tags, fused parts or gaps INS117NHL): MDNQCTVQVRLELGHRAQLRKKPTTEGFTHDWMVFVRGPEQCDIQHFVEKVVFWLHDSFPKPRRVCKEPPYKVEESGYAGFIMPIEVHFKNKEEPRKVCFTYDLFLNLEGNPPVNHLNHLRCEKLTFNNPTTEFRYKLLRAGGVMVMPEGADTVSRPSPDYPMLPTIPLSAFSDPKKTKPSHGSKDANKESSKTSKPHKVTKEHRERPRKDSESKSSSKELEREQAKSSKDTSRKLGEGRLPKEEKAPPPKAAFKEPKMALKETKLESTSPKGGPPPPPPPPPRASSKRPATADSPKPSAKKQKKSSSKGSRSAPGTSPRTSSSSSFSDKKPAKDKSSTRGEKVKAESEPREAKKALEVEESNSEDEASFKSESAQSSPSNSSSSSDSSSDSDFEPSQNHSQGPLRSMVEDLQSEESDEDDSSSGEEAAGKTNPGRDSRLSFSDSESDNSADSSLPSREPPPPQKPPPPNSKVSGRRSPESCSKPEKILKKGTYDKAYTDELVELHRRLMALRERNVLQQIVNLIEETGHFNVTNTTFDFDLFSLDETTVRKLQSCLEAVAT
T2 sequence (Q96SW2 whole entry partner): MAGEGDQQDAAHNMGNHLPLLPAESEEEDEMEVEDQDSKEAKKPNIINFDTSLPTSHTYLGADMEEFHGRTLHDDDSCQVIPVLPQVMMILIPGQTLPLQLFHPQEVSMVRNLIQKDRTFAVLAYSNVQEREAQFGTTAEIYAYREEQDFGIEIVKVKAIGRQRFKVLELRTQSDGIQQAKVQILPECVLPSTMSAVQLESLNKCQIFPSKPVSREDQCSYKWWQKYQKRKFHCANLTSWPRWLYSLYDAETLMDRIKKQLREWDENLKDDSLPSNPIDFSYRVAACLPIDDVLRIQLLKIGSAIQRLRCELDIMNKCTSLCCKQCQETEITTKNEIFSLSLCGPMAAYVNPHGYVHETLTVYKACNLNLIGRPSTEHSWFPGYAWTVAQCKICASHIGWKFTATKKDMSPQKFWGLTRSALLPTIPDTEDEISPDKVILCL

C[C@H]1CCCN1Cc1nc2cc(NC(=O)c3ccc4c(cnn4CCCCCCCCNc4cccc5c4C(=O)N(C4CCC(=O)NC4=O)C5=O)c3)ccc2[nH]1 (stereo partly drawn) [Compound 1]
ENL level in the cytoplasmic extract (ENL): significantly reduced | ENL level in the nucleus (ENL): significantly reduced dose-dependently and almost depleted with 500 nM | levels of AF9, AFF4, cyclin-T1 and DOT1L [1]: not significantly decreased | expression of HoxA9, Meis1 and Myc (HoxA9, Meis1 and Myc): significantly inhibit expression of these three genes in a generally dose-dependent manner | normalized enrichment score (NES), gene set upregulated upon ENL knockout (Molm-13 cells [2]; 4 days, GSEA panel 1): 7.46 | normalized enrichment score (NES), gene set downregulated upon ENL knockout (Molm-13 cells [2]; 4 days, GSEA panel 2): −4.26 | transcription of Myc-target genes (Molm-13 cells [2]; GSEA panel 7): significantly downregulated | gene sets regulated by knockdown of MLL-AF9 or -ENL (Molm-13 cells [2]; GSEA panels 3 and 4): significantly up- and down-regulated | expression of HoxA9-regulated genes (Molm-13 cells [2]; GSEA panels 5 and 6): reversed expression patterns | EC50 (RPMI-8226 cells): 1200 ± 230 nM | EC50 [3]: 1100 to 4100 nM | EC50 (Panc1): > 50000 nM | apoptosis (Molm-13 cells [4]; 0.5 μM or shorter incubation (e.g. 4 days)): < 5% | apoptosis (Molm-13 cells [4]; 7 days, 1 μM): 22.7% | apoptosis (Molm-13 cells [4]; 7 days, 3 μM): 67.6% | cell differentiation (CD14, CD11b) (Molm-13 cells [5]): induced cell differentiation | Dmax, WT and mutant ENL (mutant ENL (mENL); 0.1 μg plasmid, ~500 nM, 24 h incubation): ~95% | degradation of WT and mutant ENLs (mutant ENL (mENL); 0.2 μg plasmid, 500 nM): reduced efficiency | degradation of WT and mutant ENLs (mutant ENL (mENL); 1 g of the plasmid): ineffective | expression of MYC (Myc): dose-dependently decreased expression of MYC | IC50 [6]: 170 nM
